# Source: the supplement of paper PMC10307832
# Experiments:
# Assay in all cases: relative viability (nuclei count vs DMSO), 5 days (fraction); higher = more cells survive
# [1] = compound: C1=CC2=NC=CN=C2C=C1/C=C/3\C(=O)NC(=O)S3 + CC(C)C[C@H](NC(=O)[C@H](Cc1ccccc1)NC(=O)c1cnccn1)B(O)O [Bortezomib] (partner 0.002 µM)
# Method in brief: (§1)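 Relative viability is defined as nuclei in treated wells over nuclei in vehicle wells. Duplicate plates were run and medians reported. Lung cancer cell lines in 1536-well plates were dosed by pin tool one day after seeding, with one drug or with a fixed anchor-drug dose plus five library-drug doses (not always all listed) in √10 steps, and nuclei were counted after 5 days.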
# [2] = compound: C1=CC2=NC=CN=C2C=C1/C=C/3\C(=O)NC(=O)S3 + CCNC(=O)c1noc(-c2cc(C(C)C)c(O)cc2O)c1-c1ccc(CN2CCOCC2)cc1 [Luminespib] (partner 0.01 µM)
# Method in brief: as §1
# [3] = compound: C1=CC2=NC=CN=C2C=C1/C=C/3\C(=O)NC(=O)S3 + Nc1nc2[nH]cc(CCc3ccc(C(=O)N[C@@H](CCC(=O)O)C(=O)O)cc3)c2c(=O)[nH]1 [Pemetrexed] (partner 0.2 µM)
# Method in brief: as §1
# [4] = compound: CCN1CCN(c2ccc(Nc3cc(N(C)C(=O)Nc4c(Cl)c(OC)cc(OC)c4Cl)ncn3)cc2)CC1 [BGJ398] + Cc1cc(Nc2cc(N3CCN(C)CC3)nc(Sc3ccc(NC(=O)C4CC4)cc3)n2)n[nH]1 [Tozasertib] (partner 0.1 µM)
# Method in brief: as §1
cell line,measurement,setting,value
UMC-11,relative viability,[1]; first compound 0.02 µM,0.869
same,relative viability,[1]; first compound 0.06325 µM,0.965
same,relative viability,[1]; first compound 0.2 µM,0.523
same,relative viability,[1]; first compound 0.6325 µM,0.591
same,relative viability,[1]; first compound 2 µM,0.997
same,relative viability,[2]; first compound 0.02 µM,0.992
same,relative viability,[2]; first compound 0.06325 µM,1.11
same,relative viability,[2]; first compound 0.2 µM,1.05
same,relative viability,[2]; first compound 0.6325 µM,0.956
same,relative viability,[2]; first compound 2 µM,1.16
same,relative viability,[3]; first compound 0.02 µM,0.775
same,relative viability,[3]; first compound 0.06325 µM,0.816
same,relative viability,[3]; first compound 0.2 µM,0.862
same,relative viability,[3]; first compound 0.6325 µM,0.79
same,relative viability,[3]; first compound 2 µM,0.887
same,relative viability,[4]; first compound 0.01 µM,0.2
same,relative viability,[4]; first compound 0.03162 µM,0.202
same,relative viability,[4]; first compound 0.1 µM,0.207
same,relative viability,[4]; first compound 0.3162 µM,0.206
same,relative viability,[4]; first compound 1 µM,0.235
